Measured values from ChEMBL document CHEMBL1201862, “PubChem BioAssay data set” (2004).
Calls of active or inactive are those of the source.

Tests used:
Estrogen receptor = target: T1, Estrogen receptor (Homo sapiens, UniProt P03372);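 note: potency for inhibiting coactivator peptide recruitment to the receptor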
T1 sequence (P03372 whole entry): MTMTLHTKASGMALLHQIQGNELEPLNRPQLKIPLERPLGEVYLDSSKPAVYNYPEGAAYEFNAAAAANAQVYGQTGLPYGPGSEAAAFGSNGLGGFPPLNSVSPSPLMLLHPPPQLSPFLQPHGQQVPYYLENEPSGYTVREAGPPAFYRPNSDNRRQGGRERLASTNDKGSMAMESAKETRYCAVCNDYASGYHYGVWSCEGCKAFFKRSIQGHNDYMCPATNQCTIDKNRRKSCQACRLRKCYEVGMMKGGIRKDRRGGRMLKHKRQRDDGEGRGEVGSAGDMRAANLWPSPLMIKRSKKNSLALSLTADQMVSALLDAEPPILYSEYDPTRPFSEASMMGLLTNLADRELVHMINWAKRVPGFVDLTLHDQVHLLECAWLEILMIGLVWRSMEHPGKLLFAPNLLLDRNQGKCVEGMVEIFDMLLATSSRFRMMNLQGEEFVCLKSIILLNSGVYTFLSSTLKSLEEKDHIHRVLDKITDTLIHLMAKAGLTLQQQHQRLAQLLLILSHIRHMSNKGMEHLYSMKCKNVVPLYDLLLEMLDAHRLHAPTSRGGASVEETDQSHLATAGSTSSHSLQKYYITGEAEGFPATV

Estrogen receptor beta = Estrogen receptor beta (Homo sapiens, UniProt Q92731);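 note: recombinant ER-beta bound to coactivator SRC1 peptide in presence of estradiol agonist; inhibitors block coactivator peptide binding and lower the FRET signal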
[1] = target: T2, Corticotropin-releasing factor receptor 2/Corticotropin-releasing factor-binding protein (Homo sapiens, UniProt P24387+Q13324); assay: activators of CRF receptor 2 with binding protein – uHTS hits, confirmation (AID 602473); assay type: functional; conditions: read-out: EC50_Mean
T2 sequence (Q13324 whole entry): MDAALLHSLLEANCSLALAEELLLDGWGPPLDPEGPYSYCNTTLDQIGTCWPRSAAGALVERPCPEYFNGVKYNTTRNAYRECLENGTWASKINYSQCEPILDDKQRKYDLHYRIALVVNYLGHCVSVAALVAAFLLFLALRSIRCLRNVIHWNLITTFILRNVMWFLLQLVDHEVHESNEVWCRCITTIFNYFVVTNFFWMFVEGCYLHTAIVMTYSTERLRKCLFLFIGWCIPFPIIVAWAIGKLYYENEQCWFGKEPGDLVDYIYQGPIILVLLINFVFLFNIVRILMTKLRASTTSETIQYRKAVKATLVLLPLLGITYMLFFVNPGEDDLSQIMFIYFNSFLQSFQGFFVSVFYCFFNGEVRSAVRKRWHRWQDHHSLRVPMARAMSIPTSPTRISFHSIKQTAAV
T2 sequence (P24387 whole entry): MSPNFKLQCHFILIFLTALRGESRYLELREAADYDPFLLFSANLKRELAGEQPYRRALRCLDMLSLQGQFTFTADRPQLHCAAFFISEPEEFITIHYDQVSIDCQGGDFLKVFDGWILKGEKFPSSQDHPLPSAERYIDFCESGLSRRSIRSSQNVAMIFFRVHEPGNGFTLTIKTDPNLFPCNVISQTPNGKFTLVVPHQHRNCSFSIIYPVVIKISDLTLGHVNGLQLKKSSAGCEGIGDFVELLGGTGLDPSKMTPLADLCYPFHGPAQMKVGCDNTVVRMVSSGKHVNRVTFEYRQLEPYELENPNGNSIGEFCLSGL

[2] = HEp-2 cell cytotoxicity, dose response, cytotoxicity control for RSV inhibitor project, HTS (AID 2410); assay type: functional; conditions: human respiratory syncytial virus
[3] = M. tuberculosis growth inhibition, HTS (AID 449762); assay type: functional
[4] = microbe, parasite or virus in culture; assay type: functional; conditions: Mycobacterium tuberculosis
[5] = target: T2, Corticotropin-releasing factor receptor 2/Corticotropin-releasing factor-binding protein; assay: Dose Response confirmation of uHTS hits for small molecule antagonists of the CRF-binding protein and CRF-R2 receptor complex.; assay type: functional; conditions: read-out: IC50_Mean

Sequence of Estrogen receptor beta (Q92731 whole entry): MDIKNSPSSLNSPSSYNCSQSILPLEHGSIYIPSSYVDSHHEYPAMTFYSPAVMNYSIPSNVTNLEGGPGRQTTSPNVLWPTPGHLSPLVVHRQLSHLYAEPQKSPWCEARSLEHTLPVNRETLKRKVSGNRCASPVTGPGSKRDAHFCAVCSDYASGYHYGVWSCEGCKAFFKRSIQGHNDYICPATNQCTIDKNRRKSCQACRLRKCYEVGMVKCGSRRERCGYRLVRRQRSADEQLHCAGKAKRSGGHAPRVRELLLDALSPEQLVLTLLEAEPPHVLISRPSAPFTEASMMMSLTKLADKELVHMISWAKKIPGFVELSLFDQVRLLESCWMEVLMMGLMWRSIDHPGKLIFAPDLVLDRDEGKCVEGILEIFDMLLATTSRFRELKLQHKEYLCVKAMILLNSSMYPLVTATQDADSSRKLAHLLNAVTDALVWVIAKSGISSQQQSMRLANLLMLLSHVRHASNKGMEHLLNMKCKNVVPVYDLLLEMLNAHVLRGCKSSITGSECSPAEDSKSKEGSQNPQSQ

Compound	IC50 (Estrogen receptor)	IC50 (Estrogen receptor beta)	EC50 [1]	CC50 [2]	IC50 [3]	CC50 [4]	IC50 [5]
Cn1nc([N+](=O)[O-])c2c(-c3nc4ccccc4s3)c(N)n(C3CCCCC3)c2c1=O	4.98 µM (active)	6.01 µM (active)	–	–	–	–	–
Cc1nn(-c2ccccc2)c(N2CCCC2)c1/C=N/Nc1ccc(S(N)(=O)=O)cc1[N+](=O)[O-]	–	–	> 53 µM (inactive)	33.2 µM (active)	> 100 µM (active)	> 40 µM (active)	> 47.1 µM (inactive)
